Reference: patent US20160039871A1, “NOVEL FORMS OF TELAPREVIR” (SANDOZ AG, priority 2012, published 2016)

Assay: moisture sorption (Dynamic Vapor Sorption), water content versus relative humidity
Type: physicochemical
Protocol: The moisture sorption isotherms were recorded with a SPS-11 moisture sorption analyzer (MD Messtechnik, Ulm, D). […] The equilibrium condition for each step was set to a mass constancy of ±0.005% over 60 min. The temperature was 25±0.1° C.

water content (relative humidity of about 40%): about 0.5 moles of water | water content (relative humidity of about 70%-80%): about 0.9 moles of water
SMILES: CCC[C@H](NC(=O)[C@@H]1[C@H]2CCC[C@H]2CN1C(=O)[C@@H](NC(=O)[C@@H](NC(=O)c1cnccn1)C1CCCCC1)C(C)(C)C)C(=O)C(=O)NC1CC1 [Form C, (1S,3aR,6aS)-2-[(2S)-2-[[(2S)-2-Cyclohexyl-2-(pyrazine-2-carbonylamino)acetyl]amino]-3,3-dimethylbutanoyl]-N-[(3S)-1-(cyclopropylamino)-1,2-dioxohexan-3-yl]-3,3a,4,5,6,6a-hexahydro-1H-cyclopenta[c]pyrrole-1-carboxamide]
